# Like-named read-outs stand apart in the source and are kept apart here.
# Experiments:
# [1] = test system: PC-3 prostate adenocarcinoma cells; test: In vitro cytotoxicity (MTT assay), PC-3; type: cell-based, human; details: ± standard deviation, triplicate
# Experimental: (§1) The testing was performed on the ovarian carcinoma (A2780), Cisplatin-resistant ovarian carcinoma (A2780R), prostate adenocarcinoma (PC-3), prostate carcinoma (22Rv1), and leukemia monocytic (THP-1) and intestinal colon adenocarcinoma (LS180) human cell lines that were obtained from the ATCC collection of cell lines and cultivated according to the producer’s instructions. The reference normal cell line of human fetal fibroblasts (MRC-5) was obtained from the same commercial source and maintained according to the producer’s instructions. The half-maximal inhibitory concentrations (IC50) were calculated from dose–response curves by means of the GraphPad Prism 6 software (GraphPad Software, San Diego, CA, USA).
# A2780 cells [2] = test: Cell cycle analysis (flow cytometry); type: cell-based, human; details: A2780, half-cytotoxic concentration, 24 h
# Experimental: After 24 h, the cells were treated with a 4 µM solution of complex (1) and cultivated for the next 24 h. Then, the cells were washed once with PBS (0.1 M, pH 7.4), and cell cycle analysis was performed using a BD Cycletest^TM Plus DNA kit (Becton Dickinson, Franklin Lakes, NJ, USA) according to the manufacturer’s protocol. The data were acquired using a BD FACSVerse flow cytometer (Becton Dickinson, USA) in three independent experiments, each performed in duplicate, while at least 5 × 10^3 events were recorded for each sample.
# A2780 cells [3] = test: Induction of apoptosis, Annexin V-FITC/PI staining; type: cell-based, human; details: A2780, half-cytotoxic concentration, 24 h
# Experimental: (§2) The induction of cell death by complex (1) was studied by two methods in the A2780 cell line. Firstly, the induction of apoptosis was tested using an Annexin V-FITC/PI commercial kit (V13242, Thermo Fisher Scientific, USA). Second, caspase 3/7 activation was monitored using the CellEvent™ Caspase-3/7 Green Flow Cytometry Assay Kit (C10427, Thermo Fisher Scientific, USA). Both assays were performed according to the manufacturers’ protocols with one modification in the caspase induction assay: the use of CellEvent^TM Caspase-3/7 Green Detection Reagent was only for the detection of caspase 3/7 activation. The general procedure was as follows: 5 × 10^4 cells per well were seeded in a 24-well cell culture plate, and after 24 h, the cells were treated with 4 µM solution of complex (1) and cultivated for next 24 h. […] The trypsin was blocked by adding the cell culture medium to a final volume of 500 µL, and the resulting cell suspensions were divided into two separate 250 µL aliquots. The first set of aliquots was used to evaluate the Annexin V-FITC/PI assay, whilst the second one was used for the caspase 3/7 activation assay. Both assays were performed using a BD FACSVerse flow cytometer (Becton Dickinson, USA) in three independent experiments, each performed in duplicate.
# caspases 3/7 = test: Caspase 3/7 activation (flow cytometry); type: cell-based, human; details: A2780, half-cytotoxic concentration, 24 h
# Experimental: as §2
# A2780 cells [4] = test: Mitochondrial membrane potential analysis (MITO-ID); type: cell-based, human; details: A2780, half-cytotoxic concentration, 24 h
# Experimental: The A2780 cells were seeded in 24-well cell culture plates at 5 × 10^4 cells/well and cultivated for 24 h. The next day, the complex (1) was added to a final concentration of 4 µM, and the cells were incubated for another 24 h. […] The cells were then isolated by centrifugation and resuspended in a staining solution prepared according to the manufacturer’s protocol from a MITO-ID® Membrane Potential Detection kit (Enzo Life Sciences, USA). Finally, the cells were analyzed using a BD FACSVerse flow cytometer (Becton Dickinson, USA). The control was carried out by treatment with 2 µM carbonyl cyanide 3-chlorophenylhydrazone (CCCP). Three independent experiments were conducted, each in duplicate.
# [5] = test system: MRC5 human fetal fibroblasts; test: In vitro cytotoxicity (MTT assay), normal MRC-5 fibroblasts; type: cell-based; details: ± standard deviation, triplicate, read-out: IC50, MRC5 (healthy cells)
# Experimental: as §1
# A2780 cells [6] = test: Induction of autophagy (CYTO-ID kit); type: cell-based, human; details: A2780, half-cytotoxic concentration, 24 h
# Experimental: The induction of autophagy by complex (1) was studied using a CYTO-ID® Autophagy Detection Kit 2.0 (ENZO, New York, NY, USA) according to the manufacturer’s protocol. Briefly, the A2780 cells were seeded in a 24-well cell culture plate at 5 × 10^4 cells per well and cultivated for 24 h. The next day, the cells were treated with complex (1) at 4 µM. […] Then, the cells were stained with CYTO-ID® Green stain solution and incubated for 30 min in the dark. After the final wash with PBS, the cell suspensions were analyzed using the BD FACSVerse flow cytometer (Becton Dickinson, USA) in three separate experiments, while at least 10^4 events were recorded for each sample prepared in duplicates. The cells incubated with the mixture of chloroquine (10 µM) and rapamycin (0.5 µM) for 18 h were used as a positive control.
# [7] = test system: A2780 ovarian carcinoma cells; test: In vitro cytotoxicity (MTT assay), A2780; type: cell-based, human
# Experimental: The reference normal cell line of human fetal fibroblasts (MRC-5) was obtained from the same commercial source and maintained according to the producer’s instructions. The half-maximal inhibitory concentrations (IC50) were calculated from dose–response curves by means of the GraphPad Prism 6 software (GraphPad Software, San Diego, CA, USA).
# NF-κB = NF-κB activity in LPS-challenged cells (SEAP reporter); type: cell-based, human; details: 100 nM, 1 h pre-treatment, LPS 24 h, THP1-Blue NF-κB monocytes
# Experimental: The effect of the tested compounds to influence the function of transcription factor NF-κB was determined on lipopolysaccharide (LPS)-challenged THP1-Blue™ NF-κB cells as we described previously. […] After 24 h incubation, the activity of NF-κB was determined as the amount of secreted embryonic alkaline phosphatase using Quanti-Blue™ medium (Invivogen).
# THP1-Blue™ NF-κB cells = test: Cell viability, CCK-8, serum-free medium; type: cell-based, human
# Experimental: The cells were cultivated in RPMI (Roswell Park Memorial Institute) 1640 medium (Biosera; Nuaille, France) supplemented with 10% fetal bovine serum (FBS) and antibiotics (100 U/mL penicillin and […] streptomycin) (both from Merck). All further experiments were performed in serum-free medium. The effect of the test compounds dissolved in DMF on cell viability after 24 h incubation was determined using a Cell Counting Kit-8 (CCK-8; Merck) according to the manufacturer’s instructions, similarly as previously described.
# [8] = MTT, 24 h incubation, ± standard deviation, triplicate, read-out: IC50, A2780
structure (smiles),measurement,setting,value
"CC[PH](CC)(CC)[Au][S][C@@H]1O[C@H](COC(C)=O)[C@@H](OC(C)=O)[C@H](OC(C)=O)[C@H]1OC(C)=O [Auranofin, [3,4,5-triacetyloxy-6-(acetyloxymethyl)-oxane-2-thiolate-(triethylphosphine)gold(I)]]",IC50,[1],3.7 ± 0.7 µM
same,Population of cells in G2/M phase,A2780 cells [2],23.3 ± 3.6%
same,Population of cells in S phase,A2780 cells [2],19.4 ± 0.5%
same,Number of cells in the G0/G1 phase,A2780 cells [2]; vs untreated control,significant decrease in the number of cells in the G0/G1 phase
same,Cells in late stage apoptosis (Annexin V+/PI+),A2780 cells [3],around 80%
same,Activation of caspases 3/7,caspases 3/7,the most effective gold(I) complex
same,Cells with loss of mitochondrial membrane potential,A2780 cells [4],more than 80%
same,IC50,[5],3.78 ± 0.01 µM
same,Induction of autophagy,A2780 cells [6],not shown to cause metabolic stress strong enough to induce the autophagy
same,IC50,"[7]; 24 h incubation, read-out: Time-dependent in vitro cytotoxicity (IC50), A2780, 24 h",3.4 ± 0.9 µM
same,IC50,"[7]; 72 h incubation, read-out: Time-dependent in vitro cytotoxicity (IC50), A2780, 72 h",2 ± 0.1 µM
same,IC50,[7]; [8],3.4 ± 0.9 µM
same,IC50,"[7]; read-out: Time-dependent in vitro cytotoxicity (IC50), A2780, 48 h, 48 h incubation",2.1 ± 0.4 µM
same,Effect on LPS-stimulated NF-κB activity,NF-κB,the only gold(I) complex able to inhibit the activity of pro-inflammatory transcription factor NF-κB
same,IC50,"THP1-Blue™ NF-κB cells; THP1-Blue NF-κB cells, serum-free medium, 24 h treatment, CCK-8, read-out: IC50 ± SEM, cytotoxic effect",0.5 ± 1.1 µM
[Cl][Au].c1ccc(P(c2ccccc2)c2ccccc2)cc1 [[Au(PPh3)Cl]],IC50,[1],9.9 ± 0.4 µM
same,Effect on the cell cycle,A2780 cells [2],practically no effect on the cell cycle
same,Cells in early stage apoptosis (Annexin V+/PI-),A2780 cells [3],around 10%
same,Cells in late stage apoptosis (Annexin V+/PI+),A2780 cells [3],around 30%
same,Cells with active executioner caspases 3/7,caspases 3/7,around 50%
same,Damage to mitochondrial membranes,A2780 cells [4],Significant changes in mitochondrial membrane permeability
same,IC50,[5],17 ± 0.5 µM
same,Induction of autophagy,A2780 cells [6],significantly induced the autophagy
same,IC50,[7]; [8],3.5 ± 0.5 µM
same,IC50,"[7]; read-out: IC50, A2780, after 48 h and 72 h incubation, 48 h and 72 h incubation, insignificant changes",~3 µM
same,Effect on LPS-stimulated NF-κB activity,NF-κB,possessed some activity
same,IC50,THP1-Blue™ NF-κB cells,1.1 ± 1.1 µM

# — publication PMC9916778 (International Journal of Molecular Sciences, 2023)
